The source of these data is patent publication US11135445B2, “Antimicrobial photodynamic inactivation procedure and system” (The General Hospital Corporation, priority 2014, dated 2021).

The subject of test [1] is E. coli. Description: MB-mediated PDI in vitro with/without KI. The class given is cell-based, Escherichia coli K12 (ATCC 33780). To be noted: without light. Here is the method: (§1) 2) Staphylococcus aureus (NCTC 8325) and Escherichia coli K12 (ATCC 33780) were chosen as representative Gram (+) and Gram (−) bacteria respectively, for in vitro studies. A colony of bacteria was suspended in 25 ml of brain heart infusion (BHI) broth (Becton, Dickinson, and Company, Franklin Lakes, N.J.) and grown overnight in a shaker incubator (New Brunswick Scientific, Edison, N.J.) at 120 rpm in aerobic condition at 37° C. An aliquot of 1 ml from overnight suspension was refreshed in fresh BHI for 2 hours at 37° C. to mid-log phase. Cell concentration was estimated by measuring the optical density (OD) at 600 nm [OD of 0.8=10^8 colony forming units (CFU) cells/mL]. Bacterial suspension was centrifuged, washed and re-suspended in PBS to arrest microbial growth, and used (10^8 CFU) for the in vitro or in vivo experiments.
(§2) In vitro PDI studies were carried with S. aureus and with E. coli. […] An aliquot of 100 ul was used as dark control from each sample, another (100 ul) was irradiated with 5 J/cm^2 dose of light (660 nm light) and then placed in a new 96 well plate. The aliquots were serially diluted 10-fold in PBS to give dilutions of 10^1 to 10^5 times in addition to the original concentration. From each dilution 10 microleter aliquots were seeded horizontally on BHI agar. […] Each experiment was performed at least three times.

Test [2] concerns S. aureus. Description: MB-mediated PDI in vitro with/without KI. The class given is cell-based, Staphylococcus aureus (NCTC 8325). To be noted: without light. Here is the method:
as §1, §2

The next test relates to MRSA. Nature of the test: In vivo PDI of burn infected with bioluminescent MRSA. Set-up: species or system murine. From the text:
In another related embodiment, the implementation of invention as discussed in Example 1 was extended to in vivo studies in a murine infection model of burn and carried out with the use of bioluminescent MRSA and in vivo imaging. The goal here was to verify the increase of the efficacy of PDI-process of bacterial killing by adding KI to MB in an in vivo infection model.
Aggregately, FIGS. 17A through 17E represent a set of 5 representative bioluminescence image time courses from the burn (each time course from a single mouse in each of the 5 groups) infected with MRSA. […] The amount of light required to eradicate bacteria from the wound was much less when the bacteria treated with the (MB+KI) solution was irradiated than when MB alone was used to pre-treat bacteria prior to irradiation.

Test [3] relates to S. aureus. Nature of the test: Bacteria added after completion of light delivery (MB). The class given is cell-based, Staphylococcus aureus. Conditions: solution irradiated 5 J/cm^2, incubation 5-30 minutes. As for the experimental part:
(§3) To verify if long-lived species such as molecular iodine (I2) or hypoiodous acid (HOI) could be responsible for increased bacterial killing we added bacteria after completion of light delivery.
(§4) We irradiated with 5 J/cm^2 the solutions containing MB or MB+KI to generate the iodine species observed in the spectra described above. Since […] is a stable molecule, and even HOI is reasonably stable with a measurable half-life, by incubating the cells in a solution that could contain photochemically produced bactericidal concentrations of I2 or HOI, we expected to observe bacterial killing. We added bacterial cells and we evaluated the survival fraction of bacteria in an incubation time range between 5 and 30 minutes.

Test [4] relates to E. coli. The test is described as above. The class given is cell-based, Escherichia coli. Conditions: solution irradiated 5 J/cm^2, incubation 5-30 minutes. As for the experimental part:
as §3, §4

As to `CN(C)c1ccc2nc3ccc(=[N+](C)C)cc-3sc2c1` [MB, Methylene blue], the dark toxicity entry with E. coli [1] and in the test with S. aureus [2] was “lack of killing without light” throughout. Also, the “bacterial bioluminescence during PDI” value with MRSA (50 μM MB, with or without 10 mM KI, 660 nm up to 150 J/cm^2) is “light dose-dependent reduction”. The “decrease in bacterial bioluminescence” value with MRSA (660 nm light, n=6) is given as “around 2 log unit”. In the test with MRSA (follow-up over days after PDI), the “bacterial re-growth / recurrence after PDI” value is reported as “not effective to prevent recurrence”. Also, the “killing of bacteria added after irradiation of the solution” value in the test on S. aureus [3] and in the test on E. coli [4] was “did not observe any bacterial killing” each time.
